Measurements as given in patent publication US20260207637A1, “MODULATOR FOR PROMOTING BINDING OF BUTYROPHILIN 3A1/2A1” (priority 2023, published 2026).

What was measured:
[1] = Stability experiment of compounds in human whole blood; format: in vitro ADME; settings: 37° C., 0-4 h
Procedure: • (1) An appropriate amount of blank whole blood was added into an EP tube containing sodium heparin, then added the working solution of the test substance to a final concentration of 1 μM, and mixed by vortex; • (2) The sample was placed in a water bath at 37° C. with two parallel experiments; for one experiment, the time points were 0 h, 0.5 h, 1 h, 2 h, and 4 h; another experiment was performed to obtain the absolute zero point, which was compared with the 0 h point. • (3) An appropriate amount of sample was taken out from the incubation system, to which 300 μL of internal standard precipitant was added for protein precipitation; (4) all samples were centrifuged at 6° C. for 10 min (15700×g). • (5) 150 μL of the supernatant was taken out, to which 150 μL of water was added, which was mixed by vortex, and analyzed by LC-MS/MS. The stability data of compounds in human whole blood is as follows: […]

[2] = Stability experiment of compounds in human liver microsomes; format: in vitro ADME; settings: NADPH, 37° C.
Procedure: Compounds were prepared as a 10 mM stock solution with DMSO and then diluted with 80% acetonitrile-water to a 100 μM working solution for later use. Human liver microsomes were obtained from BIOIVT.
(1) The liver microsomes taken out from the refrigerator were placed in a 37° C. water bath thermostatic oscillator, pre-incubated for 5 min, and thawed for later use.
(2) A certain amount of NADPH was weighed and added to an appropriate amount of magnesium chloride solution to dissolve into a 2 mM solution for later use.
(3) A mixed solution of the warm incubation system (containing no β-NADPH) was prepared according to the proportions in the “composition of the experimental warm incubation system” above and dispensed at 165 μL/tubes (45 μL/tube for the negative control group and 120 μL/tube for the positive control group).
(4) For the sample at 0 min: 200 μL of internal standard working precipitant was added and then 30 μL of NADPH solution was added.
(5) For other samples: 135 μL NADPH solution was added to initiate the reaction (45 μL magnesium chloride solution was added for the negative control group), and incubated in a 37° C. water bath for 5, 15, 30, and 60 min (incubated in a 37° C. water bath for 60 min for the negative control group), then 60 μL was sampled and added to 200 µL of precipitant containing internal standard.
(6) For the positive control group: 90 L NADPH solution was added to initiate the reaction, and incubated in a 37° C. water bath for 5, 15 min, then 60 μL was sampled and added to 200 μL of precipitant containing internal standard.
(7) For neat sample: 297 μL of water was pipetted into a tube, 1000 μL of internal standard working solution was added, and 3 μL of test compound working solution was added.
(8) All samples were vortexed and centrifuged.
(9) 150 μL of the supernatant was sampled and added to 150 μL of water, mixed uniformly by vortex, and analyzed by LC-MS/MS. The half-life stability data of human liver microsomes is as follows: […]

[3] = Binding rate test of compounds and human plasma protein (equilibrium dialysis); format: in vitro ADME; settings: human plasma, equilibrium dialysis 6 hours, 37° C.
Procedure: (§1) (1) The dry dialysis membrane was soaked with ultrapure water for 20 min or more than 20 min, then soaked with 20% ethanol for 30 min to 1 h, and the membrane was rinsed with ultrapure water 2-3 times. Finally, the membrane was soaked with ultrapure water for 20 minutes for later use.
(§2) (2) The frozen plasma was thawed in a water bath at 37° C.
(§3) (3) The test compound was diluted into plasma preheated to 37° C. at a final concentration of 1 μM, and the final concentration of the control compound warfarin in plasma was 2 μM.
(§4) (4) The pre-treated dialysis membrane was assembled into the dialysis plate according to the specification of the product, and 120 μL of the receiving solution (100 mM phosphate buffer solution added 0.002% Tween 80) was added to one side of the permeable membrane in each dialysis well.
(§5) (5) 20 μL of each of the final solutions of the test compound and the control compound were added into a 96-well sample plate in duplicate, and the TO sample was obtained, which was stored in a refrigerator at −20° C. Another 20 μL of the above final solution was added to the other side of the membrane in the dialysis device in duplicate, and incubated at 37° C. by shaking at constant temperature for 6 hours.
(§6) (6) After 6 hours of incubation, 20 L of each of the dialyzed receiving solution and the administered plasma were weighed to obtain sample B and sample A in duplicate. The corresponding volume of corresponding blank plasma or receiving solution was added to sample B and sample A, respectively, so that the volume ratio of plasma to buffer in each sample well was 1:1. 300 μL of acetonitrile solution containing internal standard was added to all sample wells, and centrifuged after mixed uniformly.
(§7) (7) 200 μL of ultrapure water (150 μL for the control group) was added into the corresponding sample wells of the 96-well sample plate, and 300 μL of the supernatant (150 μL for the control group) was added into the sample well; the samples were analyzed after mixed uniformly. The free percentage and recovery rate of the compound in plasma were calculated using the following formula: Plasma protein binding rate (%)=1−free percentage, wherein free percentage (%)=CB/CA
(§8) wherein CB is the concentration of the compound in the receiving solution after equilibrium dialysis, CA is the concentration of the compound in the drug-dosed plasma after equilibrium dialysis, and CT0 is the initial concentration of the compound in plasma.

human plasma protein = test: as above; format: in vitro ADME; settings: 1 μM, equilibrium dialysis 6 hours, 37° C.
Procedure: as §1, §2, §3, §4, §5, §6, §7, §8

[4] = Pharmacokinetic test in cynomolgus monkeys; format: in vivo; settings: IV 2 mg/kg
Procedure: The control compound 2 and compound 19 were formulated into 1 mg/mL solution in 10% DMSO/90% PBS. Cynomolgus monkeys were obtained from Suzhou Leo Bio Technology Co., Ltd. The control compound 2 and compound 19 were administered intravenously at 2 mg/kg, respectively. The blood collected before administration was recorded as zero point. Then 1 mL of blood was collected at eight time points: 0.083, 0.15, 0.5, 1.0 2.0, 4.0, 8.0, and 24.0, respectively. 1 mL of the collected whole blood was placed in a labeled EDTA-2K anticoagulant tube. After gently inverting up and down to fully mix the anticoagulant (EDTA-2K) with the blood, it was immediately placed in wet ice and centrifuged within 30 minutes to separate the plasma. The centrifugation conditions were set to 4° C., 2200 g, and 6 min. The plasma separated after centrifugation was placed in a labeled EP tube, and the content of compound 19 and control compound 2 in the plasma samples at different time points were detected and analyzed. There were 3 male cynomolgus monkeys in each group.

| SMILES | half-life at 1 μM ([1]; whole blood (sodium heparin), read-out: T1/2 in human whole blood (converted)) [min] | half-life ([2]; read-out: T1/2 in human liver microsomes) [min] | fraction unbound at 6 h, 1 μM [3] | T1/2 in human whole blood ([1]; 1 μM) [min] | T1/2 in human liver microsomes [2] [min] | human plasma protein binding rate (human plasma protein) [%] | Plasma concentration of the unchanged drug ([4]; 5 min) [ng/mL] | Plasma concentration of the unchanged drug ([4]; 9 min) [ng/mL] | Plasma concentration of the unchanged drug ([4]; 30 min) [ng/mL] | Plasma concentration of the unchanged drug ([4]; 1 h) [ng/mL] | AUC0-t (AUClast) ([4]; average) [ng·h/mL] | AUC0-t/AUC0-inf ([4]; average) | Cl (Cl_obs) ([4]; average) [mL/min/kg] |
| --- | --- | --- | --- | --- | --- | --- | --- | --- | --- | --- | --- | --- | --- |
| C/C(=C\CCP(=O)(N[C@@H](C)C(=O)OC(C)C)Oc1ccccc1)CO (stereo partly drawn) [Control compound 1, Isopropyl (((E)-5-hydroxy-4-methylpent-3-en-1-yl)(phenoxy)phosphoryl)-L-alaninate, reference compound] | > 480 | 8.7 | 0.073 |  |  |  |  |  |  |  |  |  |  |
| C/C(=C\CC[P@@](=O)(N[C@@H](C)C(=O)O[C@@H]1CCOC1)Oc1ccccc1)CO [Compound 19, (R)-tetrahydrofuran-3-yl ((S)-((R)-5-hydroxy-4-methylpent-3-en-1-yl)(phenoxy)phosphoryl)-L-alaninate] |  |  |  | >480 | 47.8 | 64.6 | 1370 | 878 | 139 | 12 | 426 | 0.959 | 76.3 |
